The values that follow come from US20050070555A1, “Aroyl pyridinones” (Bayer HealthCare AG, priority 2001, published 2005).

The assay has as its target p38 map kinase (Homo sapiens, UniProt Q16539). Briefly: P 38 Map Kinase Assay (SPA [33-P] serine/threonine kinase assay). In kind it is biochemical. The settings on record: 10 μM ATP, 2.5 μM biotinylated myelin basic protein substrate, 500 ng/well enzyme, 90 min, 30° C. An excerpt: The assay makes use of the serine/theonine protein kinase SPA [33-P]+assay kit from Amersham Phamacia Biotech. The assay is a homogeneous technique using SPA technology for the quantification of serine threonine kinase activity.
It is based on the p38 map kinase catalysed transfer of the γ-phosphate group of the [γ-^33P] […] to the substrate, biotinylated myelin basic protein (MBP). The resulting [^33P]-labelled biotinylated product is trapped on a PVT SPA bead containing scintillant which has been surface coated with streptavidin.
The beads are allowed to settle to eliminate high background, and therefore only ^33P labelled product attached to the SPA bead is detected.
The assay is carried out in the presence and absence of test compounds to determine their effect on p38 map kinase activity.
A test protocol is as follows:
• 1. SPA assay kit (Amersham). Components: • Assay buffer (store frozen) • Stop solution (store frozen). • Streptavidin coated SPA beads—reconstitute with 5 mls of PBS. (50 mg/ml). (Store in fridge) • 2. p 38 map kinase enzyme SCRD (500 μg/ml)—aliquoted in 1.5 mls. • dilute 1:10 to 50 μg/ml • 1 plate—110 μl (stock 500 μg/ml)+990 μl PBS. • 3. Assay reagent: • for 1 plate: 504 μl Assay buffer (500 Mm MOPS pH 7.2, 10 μM ATP, 50 mM MgCl2, 25 μM biotinylated myelin basic protein (MBP)). • 2513.4 μl Water • 1.1 μl 33-p-ATP (10 μCi/ul) (on activity date/adjust for activity date) • 4.534 μl×10^-2M ATP in water • 4. Stop solution: • for 1 plate: 265.92 μl streptavidin coated beads (50 mg/ml) • 1651.684 μl stop buffer (500 μM ATP, 50 mM EDTA 1% Triton X-100) • 7084.32 μl PBS. • 1. Add 10 μl compound Dilutons (5× final conc) Test wells. • 2. Add 10 μl 12.5% DMSO to control/blank wells. • 3. Add 10 μl enzyme (50 μg/ml) final conc 500 ng/well • 4. Add 10 μl PBS to blank wells. • 5. Add 30 μl of assay reagent to each well. (final conc 10 μM ATP, 2.5 μM substrate) • 6. Mix well on plate shaker. • 7. Incubate 90 min (30° C.) • 8. Add 75 μl of stop solution to each well (final conc 55 μM ATP) • 9. Spin plate: −3 min/1600 rpm/20° C. (alternatively leave to settle overnight) • 10. Read in Microbeta, Protocol SPA paralux 3.

Each structure is given as a SMILES string.

Sequence of p38 map kinase (Q16539 whole entry): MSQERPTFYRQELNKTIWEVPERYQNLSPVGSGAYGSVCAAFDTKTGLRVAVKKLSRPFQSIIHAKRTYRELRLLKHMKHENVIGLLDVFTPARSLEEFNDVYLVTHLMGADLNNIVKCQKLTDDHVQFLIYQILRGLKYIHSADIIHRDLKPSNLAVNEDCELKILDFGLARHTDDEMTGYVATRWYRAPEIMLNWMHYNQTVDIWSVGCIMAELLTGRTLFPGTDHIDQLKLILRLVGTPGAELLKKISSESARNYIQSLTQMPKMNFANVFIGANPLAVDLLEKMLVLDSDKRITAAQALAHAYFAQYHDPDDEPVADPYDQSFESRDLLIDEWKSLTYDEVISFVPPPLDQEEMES

Compound `O=C(c1ccc(F)cc1F)c1ccc(=O)n2c1N[C@@H]1CCCC[C@@H]12` (racemic) [Example 1, (Rac-cis-5a,9a)-4-(2,4-difluorobenzoyl)-5a,6,7,8,9,9a-hexahydropyrido[1,2-a]benzimidazol-1(5H)-one] yielded an IC50 of 340 nM.

With `O=C(c1ccccc1)c1ccc(=O)n2c1N[C@@H]1CCCC[C@@H]12` (racemic) [Example 3, (Rac-cis-5a,9a)-4-benzoyl-5a,6,7,8,9,9a-hexahydropyrido[1,2-a]benzimidazol-1(5H)-one], the IC50 was found to be 455 nM.

The compound `O=C(c1cccc(Cl)c1)c1ccc(=O)n2c1N[C@@H]1CCCC[C@@H]12` (racemic) [Example 9, (Rac-cis-5a,9a)-4-(3-chlorobenzoyl)-5a,6,7,8,9,9a-hexahydropyrido[1,2-a]benzimidazol-1(5H)-one] showed an IC50 of 228 nM. This IC50 is about 2-fold lower than that of the compound before.

Take `O=C(c1ccc(F)cc1F)c1ccc(=O)n2c1N[C@H]1CCCC[C@@H]12` [Example 2-1, (5aS,9aS)-4-(2,4-difluorobenzoyl)-5a,6,7,8,9,9a-hexahydropyrido[1,2-a]benzimidazol-1(5H)-one]: the IC50 is 164 nM.

Regarding `CC1(C)Cn2c(c(C(=O)c3ccc(Cl)cc3)ccc2=O)N1` [Example 21], half-maximal inhibition (IC50) required 1800 nM.

`CC1(C)CNc2c(C(=O)c3ccc(F)cc3)ccc(=O)n2C1` [Example 24, 9-(4-Fluorobenzoyl)-3,3-dimethyl-1,2,3,4-tetrahydro-6H-pyrido[1,2-a]pyrimidin-6-one] registered an IC50 of 386 nM.
